Data reported in the kinase profiling compilation of Christmann-Franck et al. (2016).

What was measured:
Assay in all cases: KINOMEscan competition binding
Conditions in all cases: compound 10.0 µM
[1] = target: MYLK2 (human) (UniProt Q9H1R3)
[2] = target: FER (human) (UniProt P16591)
[3] = target: CSNK1G3 (human) (UniProt Q9Y6M4)
[4] = target: TAOK2 (human) (UniProt Q9UL54)
[5] = tested on: ABL1 (human), P00519 [Y253F]
[6] = target: DAPK2 (human) (UniProt Q9UIK4)
[7] = target: PLK4 (human) (UniProt O00444)
[8] = target: MAP3K2 (human) (UniProt Q9Y2U5)
[9] = target: MAPK14 (human) (UniProt Q16539)
[10] = target: CAMK2A (human) (UniProt Q9UQM7)
[11] = target: PIK3CD (human) (UniProt O00329)
[12] = target: MKNK1 (human) (UniProt Q9BUB5)
[13] = target: JAK1 JH1 catalytic (human) (UniProt P23458)
[14] = target: RPS6KB1 (human) (UniProt P23443)
[15] = target: NEK1 (human) (UniProt Q96PY6)
[16] = target: SNRK (human) (UniProt Q9NRH2)
[17] = target: TRPM6 (human) (UniProt Q9BX84)
[18] = target: CDC42BPB (human) (UniProt Q9Y5S2)
[19] = tested on: MET (human), P08581 [Y1235D]
[20] = target: PAK2 (human) (UniProt Q13177)
[21] = target: MAP3K6 (human) (UniProt O95382)
[22] = target: KIT (human) (UniProt P10721)
[23] = target: MAP3K10 (human) (UniProt Q02779)
[24] = target: MAP4K5 (human) (UniProt Q9Y4K4)
[25] = target: FYN (human) (UniProt P06241)
[26] = target: NUAK1 (human) (UniProt O60285)
[27] = target: TYK2 JH1 catalytic (human) (UniProt P29597)
[28] = target: RPS6KA4 KD1 (human) (UniProt O75676)
[29] = target: STK11 (human) (UniProt Q15831)
[30] = target: PRKCE (human) (UniProt Q02156)
[31] = target: GRK4 (human) (UniProt P32298)
[32] = target: PIM1 (human) (UniProt P11309)
[33] = target: MAP3K3 (human) (UniProt Q99759)
[34] = target: CDK5 (human) (UniProt Q00535)
[35] = target: DCLK2 (human) (UniProt Q8N568)
[36] = target: STK35 (human) (UniProt Q8TDR2)
[37] = target: MAP2K1 (human) (UniProt Q02750)
[38] = target: BRSK1 (human) (UniProt Q8TDC3)
[39] = target: MAPK12 (human) (UniProt P53778)

Sequence of GRK4 (human) (P32298 whole entry, looked up): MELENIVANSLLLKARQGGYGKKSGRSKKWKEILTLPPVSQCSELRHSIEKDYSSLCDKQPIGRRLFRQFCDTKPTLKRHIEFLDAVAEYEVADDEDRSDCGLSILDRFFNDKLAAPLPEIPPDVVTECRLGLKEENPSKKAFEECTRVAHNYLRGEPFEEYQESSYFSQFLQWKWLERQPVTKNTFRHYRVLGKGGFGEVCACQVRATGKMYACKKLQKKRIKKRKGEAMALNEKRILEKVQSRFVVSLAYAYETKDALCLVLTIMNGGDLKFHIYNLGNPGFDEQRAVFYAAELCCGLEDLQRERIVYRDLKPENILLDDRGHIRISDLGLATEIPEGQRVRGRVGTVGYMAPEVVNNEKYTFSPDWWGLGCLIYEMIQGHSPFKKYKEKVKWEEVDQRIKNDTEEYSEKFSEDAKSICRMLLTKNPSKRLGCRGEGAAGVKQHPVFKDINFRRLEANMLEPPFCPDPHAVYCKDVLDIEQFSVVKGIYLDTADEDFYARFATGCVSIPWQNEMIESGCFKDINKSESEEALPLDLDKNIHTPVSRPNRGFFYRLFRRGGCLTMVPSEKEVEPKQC
Sequence of RPS6KB1 (human) (P23443 whole entry, looked up): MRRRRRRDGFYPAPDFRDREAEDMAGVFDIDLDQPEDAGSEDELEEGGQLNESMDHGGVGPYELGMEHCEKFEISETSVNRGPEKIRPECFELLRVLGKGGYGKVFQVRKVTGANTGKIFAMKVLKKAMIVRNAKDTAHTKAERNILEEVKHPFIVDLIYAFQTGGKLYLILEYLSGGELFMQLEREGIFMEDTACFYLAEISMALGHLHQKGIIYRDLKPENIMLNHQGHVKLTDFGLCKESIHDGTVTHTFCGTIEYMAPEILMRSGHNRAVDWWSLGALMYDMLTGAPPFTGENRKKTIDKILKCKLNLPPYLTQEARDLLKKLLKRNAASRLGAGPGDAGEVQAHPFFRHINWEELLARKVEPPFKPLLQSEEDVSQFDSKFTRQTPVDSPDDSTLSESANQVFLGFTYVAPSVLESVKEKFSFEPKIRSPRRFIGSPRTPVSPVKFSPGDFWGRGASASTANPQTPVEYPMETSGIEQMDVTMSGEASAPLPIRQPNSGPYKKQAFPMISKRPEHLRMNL
Sequence of MAP3K3 (human) (Q99759 whole entry, looked up): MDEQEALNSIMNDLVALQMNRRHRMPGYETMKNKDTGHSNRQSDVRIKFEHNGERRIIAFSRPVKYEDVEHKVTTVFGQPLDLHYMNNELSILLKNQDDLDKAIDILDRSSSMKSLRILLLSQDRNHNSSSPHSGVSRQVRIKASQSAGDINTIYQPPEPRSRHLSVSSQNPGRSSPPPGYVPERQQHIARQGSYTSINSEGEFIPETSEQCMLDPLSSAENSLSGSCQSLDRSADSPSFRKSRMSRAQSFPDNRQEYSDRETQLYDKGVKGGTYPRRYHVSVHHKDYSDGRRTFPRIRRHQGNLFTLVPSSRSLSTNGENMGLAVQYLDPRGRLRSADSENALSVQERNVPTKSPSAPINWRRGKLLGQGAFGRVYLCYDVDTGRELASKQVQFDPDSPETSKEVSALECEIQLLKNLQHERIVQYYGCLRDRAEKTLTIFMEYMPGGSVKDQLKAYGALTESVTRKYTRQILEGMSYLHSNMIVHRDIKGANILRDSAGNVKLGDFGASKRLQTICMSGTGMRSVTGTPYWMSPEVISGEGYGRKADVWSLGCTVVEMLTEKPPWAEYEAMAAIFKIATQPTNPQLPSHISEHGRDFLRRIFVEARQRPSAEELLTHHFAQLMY
Sequence of PIM1 (human) (P11309 whole entry, looked up): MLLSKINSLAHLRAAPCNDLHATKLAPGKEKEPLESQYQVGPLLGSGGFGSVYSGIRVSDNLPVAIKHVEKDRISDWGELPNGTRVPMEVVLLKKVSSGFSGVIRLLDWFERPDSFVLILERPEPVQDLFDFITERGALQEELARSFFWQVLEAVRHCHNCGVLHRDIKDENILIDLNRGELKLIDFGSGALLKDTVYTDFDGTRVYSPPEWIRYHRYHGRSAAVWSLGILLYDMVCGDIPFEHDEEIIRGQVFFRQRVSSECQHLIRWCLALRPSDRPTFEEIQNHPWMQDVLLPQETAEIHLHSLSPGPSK
Sequence of MAP3K10 (human) (Q02779 whole entry, looked up): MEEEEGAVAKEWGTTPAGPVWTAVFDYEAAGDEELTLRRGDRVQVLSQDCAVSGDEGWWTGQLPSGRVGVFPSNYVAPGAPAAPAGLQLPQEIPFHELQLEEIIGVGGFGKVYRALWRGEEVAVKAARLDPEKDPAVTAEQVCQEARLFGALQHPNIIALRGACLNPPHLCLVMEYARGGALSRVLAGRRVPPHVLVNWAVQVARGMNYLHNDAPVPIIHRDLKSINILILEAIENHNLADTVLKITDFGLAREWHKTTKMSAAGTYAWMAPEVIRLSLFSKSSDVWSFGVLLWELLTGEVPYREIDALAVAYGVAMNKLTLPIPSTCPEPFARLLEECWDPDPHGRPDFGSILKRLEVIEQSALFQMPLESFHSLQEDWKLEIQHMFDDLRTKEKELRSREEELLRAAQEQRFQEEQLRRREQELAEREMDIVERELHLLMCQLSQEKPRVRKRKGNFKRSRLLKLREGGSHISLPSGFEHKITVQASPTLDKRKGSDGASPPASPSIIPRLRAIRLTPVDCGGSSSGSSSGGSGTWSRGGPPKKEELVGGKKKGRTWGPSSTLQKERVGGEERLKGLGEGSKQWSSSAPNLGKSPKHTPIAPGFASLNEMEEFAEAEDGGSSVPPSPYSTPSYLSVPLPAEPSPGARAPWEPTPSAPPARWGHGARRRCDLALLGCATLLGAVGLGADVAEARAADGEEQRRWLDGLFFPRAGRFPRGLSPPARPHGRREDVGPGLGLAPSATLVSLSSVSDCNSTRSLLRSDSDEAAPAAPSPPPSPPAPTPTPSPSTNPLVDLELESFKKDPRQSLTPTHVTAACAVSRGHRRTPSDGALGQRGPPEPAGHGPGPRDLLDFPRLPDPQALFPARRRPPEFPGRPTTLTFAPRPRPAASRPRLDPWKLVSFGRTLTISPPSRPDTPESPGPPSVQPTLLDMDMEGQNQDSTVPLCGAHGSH
Sequence of NUAK1 (human) (O60285 whole entry, looked up): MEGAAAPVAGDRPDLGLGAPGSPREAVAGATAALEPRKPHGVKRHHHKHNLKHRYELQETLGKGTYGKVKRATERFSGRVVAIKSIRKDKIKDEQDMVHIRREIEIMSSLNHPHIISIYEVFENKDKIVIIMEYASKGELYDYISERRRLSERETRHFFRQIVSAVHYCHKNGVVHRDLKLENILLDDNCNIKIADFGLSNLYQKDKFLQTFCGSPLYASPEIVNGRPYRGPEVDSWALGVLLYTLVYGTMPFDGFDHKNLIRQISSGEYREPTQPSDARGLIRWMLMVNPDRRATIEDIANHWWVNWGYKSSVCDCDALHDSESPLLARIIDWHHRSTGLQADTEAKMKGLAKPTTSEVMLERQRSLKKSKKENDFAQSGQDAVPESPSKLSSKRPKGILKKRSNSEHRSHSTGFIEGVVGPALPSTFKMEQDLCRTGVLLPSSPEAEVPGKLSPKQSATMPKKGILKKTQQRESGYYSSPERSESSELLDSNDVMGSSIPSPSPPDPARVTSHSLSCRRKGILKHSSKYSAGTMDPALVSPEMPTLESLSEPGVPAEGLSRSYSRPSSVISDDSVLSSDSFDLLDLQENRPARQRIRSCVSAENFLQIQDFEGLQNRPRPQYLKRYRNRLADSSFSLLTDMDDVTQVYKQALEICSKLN
Sequence of JAK1 JH1 catalytic (human) (P23458 whole entry, looked up): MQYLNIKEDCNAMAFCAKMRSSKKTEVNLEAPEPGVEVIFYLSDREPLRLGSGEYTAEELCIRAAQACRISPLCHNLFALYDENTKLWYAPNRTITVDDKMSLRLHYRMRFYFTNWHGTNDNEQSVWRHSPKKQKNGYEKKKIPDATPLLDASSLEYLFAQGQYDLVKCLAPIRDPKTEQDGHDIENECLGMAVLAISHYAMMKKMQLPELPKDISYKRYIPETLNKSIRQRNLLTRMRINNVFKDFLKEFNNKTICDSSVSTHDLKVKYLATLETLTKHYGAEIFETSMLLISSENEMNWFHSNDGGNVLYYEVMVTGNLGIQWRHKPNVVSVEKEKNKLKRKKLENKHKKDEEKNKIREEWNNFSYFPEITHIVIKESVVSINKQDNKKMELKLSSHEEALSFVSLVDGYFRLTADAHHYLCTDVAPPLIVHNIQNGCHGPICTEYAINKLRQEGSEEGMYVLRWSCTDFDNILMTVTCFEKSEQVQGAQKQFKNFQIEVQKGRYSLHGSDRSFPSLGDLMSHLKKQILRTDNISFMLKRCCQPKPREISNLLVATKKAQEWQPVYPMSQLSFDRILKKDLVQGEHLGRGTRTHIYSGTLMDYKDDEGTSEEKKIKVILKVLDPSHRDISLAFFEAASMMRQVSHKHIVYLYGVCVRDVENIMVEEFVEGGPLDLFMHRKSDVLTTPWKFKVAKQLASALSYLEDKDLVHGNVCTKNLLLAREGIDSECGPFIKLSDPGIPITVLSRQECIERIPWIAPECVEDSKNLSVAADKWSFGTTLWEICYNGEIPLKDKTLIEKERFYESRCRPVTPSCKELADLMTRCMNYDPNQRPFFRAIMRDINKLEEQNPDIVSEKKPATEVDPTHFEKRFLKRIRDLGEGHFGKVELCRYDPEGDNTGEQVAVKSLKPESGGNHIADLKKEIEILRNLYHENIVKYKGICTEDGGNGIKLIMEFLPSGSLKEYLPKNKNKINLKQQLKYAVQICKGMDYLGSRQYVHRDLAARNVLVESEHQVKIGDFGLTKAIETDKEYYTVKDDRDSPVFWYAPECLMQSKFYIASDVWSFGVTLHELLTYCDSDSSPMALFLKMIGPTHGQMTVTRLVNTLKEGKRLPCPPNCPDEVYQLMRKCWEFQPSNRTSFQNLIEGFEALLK

**Q.** With `COc1cc2ncn(-c3cc(OCc4ccccc4C(F)(F)F)c(C(N)=O)s3)c2cc1OC` as the molecule, how does the kinase still bound, per cent of control [1] read?
**A.** 59%

**Q.** And the kinase still bound, per cent of control [2]?
**A.** 100%

**Q.** And the kinase still bound, per cent of control [3]?
**A.** 100%

**Q.** And the kinase still bound, per cent of control [4]?
**A.** 100%

**Q.** What about the kinase still bound, per cent of control [5] of the same molecule?
**A.** 88%

**Q.** And the kinase still bound, per cent of control [6]?
**A.** 36%

**Q.** What about the kinase still bound, per cent of control [7] of the same molecule?
**A.** 29%

**Q.** And the kinase still bound, per cent of control [8]?
**A.** 100%

**Q.** And the kinase still bound, per cent of control [9]?
**A.** 100%

**Q.** And the kinase still bound, per cent of control [10]?
**A.** 76%

**Q.** And the kinase still bound, per cent of control [11]?
**A.** 78%

**Q.** And the kinase still bound, per cent of control [12]?
**A.** 88%

**Q.** And the kinase still bound, per cent of control [13]?
**A.** 100%

**Q.** And the kinase still bound, per cent of control [14]?
**A.** 65%

**Q.** And the kinase still bound, per cent of control [15]?
**A.** 65%

**Q.** And the kinase still bound, per cent of control [16]?
**A.** 83%

**Q.** And the kinase still bound, per cent of control [17]?
**A.** 100%

**Q.** What about the kinase still bound, per cent of control [18] of the same molecule?
**A.** 64%

**Q.** What about the kinase still bound, per cent of control [19] of the same molecule?
**A.** 40%

**Q.** What about the kinase still bound, per cent of control [20] of the same molecule?
**A.** 96%

**Q.** And the kinase still bound, per cent of control [21]?
**A.** 84%

**Q.** What about the kinase still bound, per cent of control [22] of the same molecule?
**A.** 30%

**Q.** What about the kinase still bound, per cent of control [23] of the same molecule?
**A.** 98%

**Q.** And the kinase still bound, per cent of control [24]?
**A.** 3%

**Q.** What about the kinase still bound, per cent of control [25] of the same molecule?
**A.** 48%

**Q.** What about the kinase still bound, per cent of control [26] of the same molecule?
**A.** 21%

**Q.** What about the kinase still bound, per cent of control [27] of the same molecule?
**A.** 59%

**Q.** What about the kinase still bound, per cent of control [28] of the same molecule?
**A.** 69%

**Q.** What about the kinase still bound, per cent of control [29] of the same molecule?
**A.** 37%

**Q.** And the kinase still bound, per cent of control [30]?
**A.** 100%

**Q.** What about the kinase still bound, per cent of control [31] of the same molecule?
**A.** 18%

**Q.** What about the kinase still bound, per cent of control [32] of the same molecule?
**A.** 89%

**Q.** What about the kinase still bound, per cent of control [33] of the same molecule?
**A.** 74%

**Q.** And the kinase still bound, per cent of control [34]?
**A.** 100%

**Q.** What about the kinase still bound, per cent of control [35] of the same molecule?
**A.** 99%

**Q.** And the kinase still bound, per cent of control [36]?
**A.** 56%

**Q.** And the kinase still bound, per cent of control [37]?
**A.** 67%

**Q.** Which results are given for `COCC(=O)NC/C=C/c1ccc2ncnc(Nc3ccc(Oc4ccc(C)nc4)c(C)c3)c2c1`?
**A.** kinase still bound, per cent of control [1]: 100%; kinase still bound, per cent of control [2]: 100%; kinase still bound, per cent of control [3]: 100%; kinase still bound, per cent of control [4]: 100%; kinase still bound, per cent of control [6]: 89%; kinase still bound, per cent of control [7]: 74%; kinase still bound, per cent of control [8]: 100%; kinase still bound, per cent of control [9]: 100%; kinase still bound, per cent of control [10]: 93%; kinase still bound, per cent of control [11]: 100%; kinase still bound, per cent of control [12]: 100%; kinase still bound, per cent of control [13]: 100%; kinase still bound, per cent of control [14]: 65%; kinase still bound, per cent of control [15]: 83%; kinase still bound, per cent of control [16]: 71%; kinase still bound, per cent of control [17]: 100%; kinase still bound, per cent of control [18]: 96%; kinase still bound, per cent of control [19]: 81%; kinase still bound, per cent of control [20]: 87%; kinase still bound, per cent of control [21]: 100%; kinase still bound, per cent of control [23]: 100%; kinase still bound, per cent of control [24]: 86%; kinase still bound, per cent of control [25]: 100%; kinase still bound, per cent of control [26]: 100%; kinase still bound, per cent of control [27]: 100%; kinase still bound, per cent of control [28]: 97%; kinase still bound, per cent of control [30]: 100%; kinase still bound, per cent of control [38]: 100%; kinase still bound, per cent of control [31]: 100%; kinase still bound, per cent of control [32]: 100%; kinase still bound, per cent of control [33]: 100%; kinase still bound, per cent of control [34]: 100%; kinase still bound, per cent of control [35]: 100%; kinase still bound, per cent of control [39]: 100%; kinase still bound, per cent of control [36]: 65%; kinase still bound, per cent of control [37]: 9.4%
